Read-outs that look alike come from different tables or passages of the source. A value given as a limit tells only on which side of the number the result lay.

Assay [1] deals with β-xylosidase from Thermoanaerobacterium saccharolyticum. As to conditions: read-out: Ki (Xyl Therm. sac.), cited from earlier work.
In assay [2] the target is human lysosomal β-glucocerebrosidase (GCase). As to conditions: cited from earlier work; for IC50: compounds 10a-10b.
Assay [3] addresses T1, human β-glucocerebrosidase (GCase) (Homo sapiens, UniProt P04062).
T1 construct: gift of Dr. Lorne Clarke, University of British Columbia
T1 sequence (P04062 40-536): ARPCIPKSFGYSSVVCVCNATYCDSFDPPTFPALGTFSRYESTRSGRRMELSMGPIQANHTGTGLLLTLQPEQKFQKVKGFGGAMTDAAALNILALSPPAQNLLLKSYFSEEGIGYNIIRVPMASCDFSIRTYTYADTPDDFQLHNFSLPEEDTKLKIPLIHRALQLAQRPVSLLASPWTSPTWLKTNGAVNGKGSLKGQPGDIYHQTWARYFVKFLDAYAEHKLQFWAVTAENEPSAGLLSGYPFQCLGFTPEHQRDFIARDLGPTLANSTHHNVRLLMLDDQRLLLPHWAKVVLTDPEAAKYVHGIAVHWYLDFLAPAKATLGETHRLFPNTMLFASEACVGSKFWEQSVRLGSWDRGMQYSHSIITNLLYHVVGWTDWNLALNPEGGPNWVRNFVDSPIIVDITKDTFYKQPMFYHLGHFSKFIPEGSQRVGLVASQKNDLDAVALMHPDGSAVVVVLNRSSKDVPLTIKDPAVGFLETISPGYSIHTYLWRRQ
As to the kind of experiment: Ki determination with human β-glucocerebrosidase (GCase). It is filed as biochemical. As to conditions: 37 °C, citric acid/phosphate buffer with Triton X-100 and taurocholic acid pH 7.0, 4-nitrophenyl glycopyranoside substrate; read-out: Ki β-Glu, Gaucher (GCase). An excerpt: (§1) For the biological evaluation of the synthesized DIX derivatives 19, 23, 26, and 28, we have probed a series of standard glycoside hydrolases, including β-glucosidase from Agrobacterium sp. (ABG), β-galactosidase from E. coli, Fabrazyme (commercial recombinant human lysosomal α-galactosidase), α-glucosidase S. cerevisiae, and human β-glucocerebrosidase GCase, to investigate ligand activity as well as selectivity. […] This increase in selectivity might be explained by the fact that compounds 26 and 28 combine the advantages of both features, the ethyl group at position C-1 locking the structure in the ^1C4 conformation as well as the lipophilic substituents at the ring nitrogen. The former has been implied for favorable ligand properties and the fitting into the active site of GCase. The latter interacts with the lipophilic entrance to the active site of GCase mimicking the ceramide residue of the natural substrate glucosyl ceramide. Compounds 26 and 28 will serve as building blocks for further functionalisation as proposed.
(§2) Kinetic studies were performed at 37 °C in an appropriate buffer using a known concentration of enzyme (specific conditions depicted below). Ki determinations were performed using the corresponding 4-nitrophenyl α- or β-D-glycopyranoside as substrate. In a typical assay, the enzyme was incubated with different inhibitor concentrations for up to 5 min before initiating the reaction by the addition of substrate. The initial reaction rate was measured by monitoring the increase in absorbance at 400 nm for up to 10 min. Ki determinations were performed using at least two different substrate concentrations. For each inhibitor, a range of four-to-six inhibitor concentrations bracketing the Ki value ultimately determined was used for each substrate concentration. Dixon plots (1/v vs. [I]) were constructed to validate the use of the competitive inhibition model. The data were then fitted using non-linear regression analysis with Grafit 7.0.

Assay [4] deals with T2, β-glucosidase/β-galactosidase from Agrobacterium sp. (ABG) (Agrobacterium sp., UniProt P12614).
T2 construct: made in house; host or cells: E. coli
T2 sequence (P12614 1-459): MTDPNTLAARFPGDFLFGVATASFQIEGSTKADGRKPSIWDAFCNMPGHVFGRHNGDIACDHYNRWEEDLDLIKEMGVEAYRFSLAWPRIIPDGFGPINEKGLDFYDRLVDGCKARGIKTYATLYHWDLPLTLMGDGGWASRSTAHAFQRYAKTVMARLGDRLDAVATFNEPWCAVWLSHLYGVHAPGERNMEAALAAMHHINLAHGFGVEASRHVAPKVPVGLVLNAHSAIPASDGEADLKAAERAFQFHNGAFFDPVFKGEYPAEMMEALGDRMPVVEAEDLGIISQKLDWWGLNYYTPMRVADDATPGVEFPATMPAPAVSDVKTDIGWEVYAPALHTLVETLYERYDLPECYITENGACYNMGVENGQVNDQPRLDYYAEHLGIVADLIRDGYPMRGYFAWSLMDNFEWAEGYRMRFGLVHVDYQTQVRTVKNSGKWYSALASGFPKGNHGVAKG
As to the kind of experiment: Ki determination with β-glucosidase from Agrobacterium sp. (ABG). Format: biochemical. As to conditions: for Ki: 37 °C, 50 mM sodium phosphate buffer pH 7, 4-nitrophenyl glycopyranoside substrate, read-out: Ki β-Glu, ABG.
Excerpt: as §1, §2

For assay [5], the target named is T3, E.coli lac z β-galactosidase (Escherichia coli, UniProt P00722).
T3 construct: purchased Sigma-Aldrich
T3 sequence (P00722 2-1024 limits assumed): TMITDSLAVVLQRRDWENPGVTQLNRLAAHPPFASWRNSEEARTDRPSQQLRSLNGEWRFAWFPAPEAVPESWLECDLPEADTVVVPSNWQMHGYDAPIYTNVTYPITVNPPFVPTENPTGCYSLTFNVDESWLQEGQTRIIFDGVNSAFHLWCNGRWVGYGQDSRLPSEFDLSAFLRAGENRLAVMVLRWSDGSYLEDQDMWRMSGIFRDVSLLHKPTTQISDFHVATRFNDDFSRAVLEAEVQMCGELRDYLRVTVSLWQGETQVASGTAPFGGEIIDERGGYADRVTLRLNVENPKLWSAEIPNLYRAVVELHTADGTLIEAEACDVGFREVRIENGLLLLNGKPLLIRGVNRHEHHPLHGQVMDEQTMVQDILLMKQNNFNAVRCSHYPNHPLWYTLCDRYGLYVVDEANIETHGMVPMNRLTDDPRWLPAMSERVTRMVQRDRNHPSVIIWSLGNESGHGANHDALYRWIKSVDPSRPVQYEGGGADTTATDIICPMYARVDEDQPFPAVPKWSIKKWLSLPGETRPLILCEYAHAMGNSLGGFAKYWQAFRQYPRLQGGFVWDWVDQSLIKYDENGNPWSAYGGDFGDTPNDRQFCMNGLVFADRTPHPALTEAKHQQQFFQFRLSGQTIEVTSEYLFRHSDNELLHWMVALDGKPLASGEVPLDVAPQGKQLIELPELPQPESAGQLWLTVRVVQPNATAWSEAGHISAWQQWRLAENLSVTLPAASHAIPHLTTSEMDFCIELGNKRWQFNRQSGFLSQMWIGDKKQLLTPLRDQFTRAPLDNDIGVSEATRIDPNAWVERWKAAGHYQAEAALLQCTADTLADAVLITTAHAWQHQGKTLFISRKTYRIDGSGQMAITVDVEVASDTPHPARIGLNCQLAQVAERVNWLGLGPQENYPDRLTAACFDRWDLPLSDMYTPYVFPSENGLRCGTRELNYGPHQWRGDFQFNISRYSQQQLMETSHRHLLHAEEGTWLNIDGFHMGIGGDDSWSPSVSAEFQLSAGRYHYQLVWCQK
As to the kind of experiment: Ki determination with β-galactosidase from E. coli. It is filed as biochemical. As to conditions: 37 °C, 50 mM sodium phosphate, 1.0 mM MgCl2 pH 7, 4-nitrophenyl glycopyranoside substrate; read-out: Ki β-Gal, E. coli.
Excerpt: as §1, §2

The target of assay [6] is T4, Fabrazyme (commercial recombinant human lysosomal α-galactosidase) (Homo sapiens, UniProt P06280).
T4 construct: purchased Fabrazyme, a commercial product; received as a gift from Dr Lorne Clarke, University of British Columbia
T4 sequence (P06280 32-429): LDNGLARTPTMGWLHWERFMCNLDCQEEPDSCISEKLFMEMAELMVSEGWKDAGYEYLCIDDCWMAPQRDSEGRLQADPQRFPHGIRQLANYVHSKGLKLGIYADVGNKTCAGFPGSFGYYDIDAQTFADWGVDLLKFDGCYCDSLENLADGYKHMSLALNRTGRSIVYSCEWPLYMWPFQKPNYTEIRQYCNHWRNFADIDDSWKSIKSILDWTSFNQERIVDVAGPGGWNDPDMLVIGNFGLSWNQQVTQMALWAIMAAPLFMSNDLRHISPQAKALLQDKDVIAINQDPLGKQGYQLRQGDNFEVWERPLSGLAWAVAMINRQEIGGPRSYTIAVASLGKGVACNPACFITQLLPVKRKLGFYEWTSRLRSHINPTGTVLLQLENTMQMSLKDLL
As to the kind of experiment: Ki determination with Fabrazyme. As to conditions: 37 °C, citrate/phosphate buffer with Triton X-100 and taurocholic acid pH 5.5, 4-nitrophenyl glycopyranoside substrate; read-out: Ki α-Gal, Fabrazyme. It is filed as biochemical.
Excerpt: as §1, §2

In assay [7] the target is S. cerevisiae α-glucosidase. As to the kind of experiment: Ki determination with α-glucosidase S. cerevisiae. It is filed as biochemical. As to conditions: 37 °C, 50 mM sodium phosphate buffer pH 7, PNP α-Glc substrate; read-out: Ki α-Glu, S. cer.
Excerpt: as §1, §2

The mark [8] stands for this setting: C-1 alkyl modified DIX analogues 15.
Where [9] appears, read: D-xylo 1-C-iminosugar glycosides 14.

Take `COC(=O)[C@H](CCCCN1C[C@@H](O)[C@H](O)[C@@H](O)C1)NS(=O)(=O)c1cccc2c(N(C)C)cccc12` [8, R^1 = NHdansyl, R^2 = OMe]: the Ki (as a rule, the dissociation constant of the complex between target and ligand, obtained from inhibition or displacement) in assay [1] (N-modified DIX derivatives 8) was 10 µM. For the compound `COC(=O)[C@H](CCCCN1C[C@@H](O)[C@H](O)[C@@H](O)C1)NC(=O)[C@H](CCCCN1C[C@@H](O)[C@H](O)[C@@H](O)C1)NS(=O)(=O)c1cccc2c(N(C)C)cccc12` [8, R^1 = NHdansyl, R^2 =], the Ki in assay [1] (N-modified DIX derivatives 8) was 21 µM.

As to `COC(=O)[C@H](CCCCN1C[C@@H](O)[C@H](O)[C@@H](O)C1)N1C[C@@H](O)[C@H](O)[C@@H](O)C1` [8, R^1 = R^2 = OMe], in assay [1] (N-modified DIX derivatives 8), the Ki is 25 µM. On to `N#CCCN1C[C@@H](O)[C@H](O)[C@@H](O)C1` [Compound 7a], for which, in assay [1] (N-modified DIX derivatives 7), the Ki was 24 µM. In the case of `COC(=O)CCN1C[C@@H](O)[C@H](O)[C@@H](O)C1` [Compound 7b], the Ki in assay [1] (N-modified DIX derivatives 7) was 35 µM.

`CCCCCC[C@H]1NC[C@@H](O)[C@H](O)[C@H]1O` [Compound 10a]: the IC50 (commonly the midpoint of a concentration-inhibition curve) in assay [2] is 19 nM. For the compound `CCCCCCO[C@H]1CNC[C@@H](O)[C@@H]1O` [Compound 10b], the IC50 in assay [2] is 9 nM. Turning to `CCOC(=O)CC[C@H]1NC[C@@H](O)[C@H](O)[C@H]1O` [Compound 19, (1R)-1-C-(Ethyloxycarbonylethyl)-1,5-dideoxy-1,5-imino-D-xylitol], the Ki in assay [3] was 5.1 µM; in assay [4] it was 2.1 µM; in assay [5], above 1 mM; in assay [6], above 1 mM; in assay [7] it was above 1 mM. As for `O=C(CC[C@H]1NC[C@@H](O)[C@H](O)[C@H]1O)NCCc1c[nH]cn1` [Compound 23, (1R)-1-C-[(Imidazo-4-yl)ethylaminocarbonylethyl]-1,5-dideoxy-1,5-imino-D-xylitol], the inhibition constant (Ki) in assay [3] was 1.1 µM; in assay [4], 1.6 µM; in assay [5], above 1 mM; in assay [6] it was above 1 mM; in assay [7] it was above 1 mM. In the case of `CC[C@@H]1[C@H](O)[C@@H](O)[C@H](O)CN1CCCCCC(=O)OC` [Compound 26, (1R)-1-C-Ethyl-N-(methyloxycarbonylpentyl)-1,5-dideoxy-1,5-imino-D-xylitol], the Ki in assay [3] is 57 µM; in assay [4] it was above 1000 µM; in assay [5], above 1 mM; in assay [6], above 1 mM; in assay [7] it was above 1 mM. Further, in assay [4], the “inhibition of β-Glu ABG, in words” value is recorded as “No detectable inhibition”. In the case of `CC[C@@H]1[C@H](O)[C@@H](O)[C@H](O)CN1CCCCCC(=O)NCCc1c[nH]cn1` [Compound 28, (1R)-1-C-Ethyl-N-[(imidazo-4-yl)ethylaminocarbonylpentyl]-1,5-dideoxy-1,5-imino-D-xylitol], the Ki in assay [3] is 4.1 µM; in assay [4] it was above 1000 µM; in assay [5], above 1 mM; in assay [6], above 1 mM; in assay [7] it was above 1 mM. The “inhibition of β-Glu ABG, in words” value in assay [4] is “No detectable inhibition”. Take `CCC[C@H]1NC[C@@H](O)[C@H](O)[C@H]1O` [R = (CH2)2CH3]: the Ki in assay [2] (setting [8]) was 1300 nM. On to `OCC[C@H]1NC[C@@H](O)[C@H](O)[C@H]1O` [R = (CH2)2OH], for which the Ki in assay [2] (setting [8]) was 26700 nM. Turning to `CCCCCCCCC[C@H]1NC[C@@H](O)[C@H](O)[C@H]1O` [R = C9H19], the Ki in assay [2] (1-C-alkyl imino-D-xylitols 9) is 2.2 nM. As for `CCCCCCCCCCCC[C@H]1NC[C@@H](O)[C@H](O)[C@H]1O` [R = C12H25], the Ki in assay [2] (1-C-alkyl imino-D-xylitols 9) was 31 nM. On to `CC[C@H]1NC[C@@H](O)[C@H](O)[C@H]1O` [R = CH2CH3], for which the Ki in assay [2] (setting [8]) is 2300 nM. As to `CC(C)[C@H]1NC[C@@H](O)[C@H](O)[C@H]1O` [R = CH(CH3)2], the Ki in assay [2] (setting [8]) is 12400 nM. Take `N#C[C@H]1NC[C@@H](O)[C@H](O)[C@H]1O` [R = CN]: the Ki in assay [2] (setting [8]) was 34000 nM. As for `O[C@@H]1[C@@H](O)[C@@H](CCCCCOCC23CC4CC(CC(C4)C2)C3)NC[C@H]1O` [R^1 = C-C, n=2, R^2 =], the inhibition constant Ki in assay [2] (setting [9]) was 1 nM. For the compound `O[C@@H]1[C@@H](O)[C@@H](CC=CCCOCC23CC4CC(CC(C4)C2)C3)NC[C@H]1O` [R^1 = C=C, n=2, R^2 =], in assay [2] (setting [9]), the Ki was 2 nM.

The values above are taken from paper PMC6534063, “Synthesis of modified 1,5-imino-D-xylitols as ligands for lysosomal β-glucocerebrosidase” (Monatshefte Fur Chemie, 2019).
